Data from patent US20220016277A1, “MACROCYCLIC COMPLEXES OF RADIONUCLIDES AND THEIR USE IN RADIOTHERAPY OF CANCER” (Cornell University, priority 2018, published 2022).

Experiments:
[1] = Stability of [^225Ac(macropa)]^+ in human serum; format: in vitro ADME
Description: Transmetalation by La^3+. [^225Ac(macropa)]^+ and [^225Ac(DOTA)] were prepared using 10^−5 M and 10^−3 M stock solutions (10 μL) of macropa and DOTA, respectively, to give final ligand concentrations of 5.9×10^−7 M (macropa) and 5.9×10^−5 M (DOTA). After confirming a radiochemical yield of >90% by TLC using 0.4 M sodium citrate (pH 4) containing 10% MeOH as the mobile phase, 160 μL of human serum (an equal volume based on labeling reaction volume) were added to each radiolabeled solution. A control solution was also prepared in which water was substituted for ligand. The solutions were monitored over the course of 8 days by iTLC. The plates were developed with EDTA (50 mM, pH 5) as the eluent. Under these conditions, [^225Ac(macropa)]^+ and [^225Ac(DOTA)]^− complexes remained at the baseline (RF=0) and any ^225Ac (^225Ac-EDTA) that had been transchelated by serum migrated with the solvent front (RF=1). Percent of complex remaining intact was calculated.
The long half-life of ^225Ac necessitates its stable complex retention in vivo to avoid off-target damage to normal tissues arising from the release of free ^225Ac^3+. Furthermore, the stability of ^225Ac complexes against transmetalation and transchelation needs to be high. To determine the kinetic inertness, [^225Ac(macropa)]^+ was challenged with La^3+ because of the established high affinity of macropa for this metal ion. […]

[2] = Kinetic inertness of ^225Ac complexes: challenge with excess La^3+; format: physicochemical; conditions: 50-fold excess of La^3+; macropa 0.59 μM; RT; over 7 days
Description: Kinetic Inertness of ^225Ac Complexes of Macropa and DOTA.
General. Stock solutions of La(NO3)3 (0.001 M or 0.1 M) were prepared in H2O. To the radiolabeled samples containing macropa (10 μL of 10^−5M stock; 1.0×10^−10 moles) or DOTA (10 μL of 10^_3M stock; 1.0×10^−8 moles) and ^225Ac (10 μL, 26 kBq) in NH4OAc buffer (pH 6, 0.15 M, 150 μL), a 50-fold mole excess of La^3+ was added (5 μL of 0.001 M or 0.1 M stock were added to solutions containing macropa and DOTA, respectively). The solutions were kept at room temperature and analyzed by iTLC at several time points over the course of 8 days. The iTLC plates were developed using citric acid (0.05 M, pH 5) as the eluent. Under these conditions, [^225Ac(macropa)]^+ and [^225Ac(DOTA)]^− remained at the baseline (RF=0) and any unchelated ^225Ac (^225Ac-citrate) migrated with the solvent front (RF=1). Percent of complex remaining intact was calculated by integrating area under the peaks on the radiochromatogram and dividing the counts associated with the ^225Ac-complex (RF=0) by the total counts integrated along the length of the iTLC plate.
The long half-life of ^225Ac necessitates its stable complex retention in vivo to avoid off-target damage to normal tissues arising from the release of free ^225Ac^3+. Furthermore, the stability of ^225Ac complexes against transmetalation and transchelation needs to be high. […]

O=C([O-])c1cccc(CN2CCOCCOCCN(Cc3cccc(C(=O)[O-])n3)CCOCCOCC2)n1.[225Ac+3] [[^225Ac(macropa)]^+]
time ^225Ac^3+ remains complexed in human serum (radio-TLC) [1]: at least 8 days | ^225Ac complex remaining intact (radio-TLC) [2]: 98%
